Experimental data taken from patent publication US8426371B2, “Biologically active extract from Dendrobium plant, use thereof and process for preparing the same” (National Yang-Ming University, priority 2007, dated 2013).

Test system: RPE cells
Assay: Phagocytosis of RPE: FITC-ROS uptake, fluorescence intensity (total; ingestion with fluoro Quench dye)
Type: cell-based
Conditions: for effect on the total phagocytosis of RPE: 0.1, 1, 10, 100 μg/ml, 24 hrs treatment in 2% FCS DMEM, then FITC-ROS 4 hrs, compared with 2% FCS; for effect on the phagocytosis of RPE (total and ingestion, FIGS. 8-15): summary based on FIGS. 8-15
Method: 1×10^4 RPE cells are seeded in 96-well microplate per well, containing 5% FCS in DMEM after 48 hrs, and the medium is changed with 2% FCS in DMEM. Then different concentrations of DCMPbL6,7D2H2H3 are added respectively. After 24 hrs, 50 μl of 2×10^7 FITC-ROS/ml is added into each well. Four hours later, the unbounded FITC-ROS is washed out with PBS+2% sucrose. The emission wavelength is 485 nm and the detecting wavelength is 530 nm. The fluorescence intensity is detected by a 1420 Multilable counter (PE) measurement system. The detected fluorescence intensity represents the total phagocytosis. If the fluoro Quench dye is added, the detected fluorescence intensity represents the ingestion phagocytosis. *P<0.05, **P<0.02, ***P<0.01 and ****P<0.001 are obtained by comparing with phagocytosis of RPE treated with 2% FCS.
1×10^4 RPE cells are seeded in 96-well microplate per well, containing 5% FCS in DMEM after 48 hrs, and the medium is changed with 2% FCS in DMEM. Then different concentrations of DCMPbL6,7D2H2H3H2 are added respectively. After 24 hrs, 50 μl of 2×10^7 FITC-ROS/ml is added into each well. Four hours later, the unbounded FITC-ROS is washed out with PBS+2% sucrose. The emission wavelength is 485 nm and the detecting wavelength is 530 nm. The fluorescence intensity is detected by a 1420 Multilable counter (PE) measurement system. The detected fluorescence intensity represents the total phagocytosis. If the fluoro Quench dye is added, the detected fluorescence intensity represents the ingestion phagocytosis. *P<0.05, **P<0.02, ***P<0.01 and ****P<0.001 are obtained by comparing with phagocytosis of RPE treated with 2% FCS.
1×10^4 RPE cells are seeded in 96-well microplate per well, containing 5% FCS in DMEM after 48 hrs, and the medium is changed with 2% FCS in DMEM. Then different concentrations of DCMPbL6,7D2H2H3H3 are added respectively. After 24 hrs, 50 μl of 2×10^7 FITC-ROS/ml is added into each well. Four hours later, the unbounded FITC-ROS is washed out with PBS+2% sucrose. The emission wavelength is 485 nm and the detecting wavelength is 530 nm. The fluorescence intensity is detected by a 1420 Multilable counter (PE) measurement system. The detected fluorescence intensity represents the total phagocytosis. If the fluoro Quench dye is added, the detected fluorescence intensity represents the ingestion phagocytosis. *P<0.05, **P<0.02, ***P<0.01 and ****P<0.001 are obtained by comparing with phagocytosis of RPE treated with 2% FCS.
1×10^4 RPE cells are seeded in 96-well microplate per well, containing 5% FCS in DMEM after 48 hrs, and the medium is changed with 2% FCS in DMEM. Then different concentrations of DCMPbL6,7D2H2H3H4 are added respectively. After 24 hrs, 50 μl of 2×10^7 FITC-ROS/ml is added into each well.

Structure (SMILES)	effect on the total phagocytosis of RPE	effect on the phagocytosis of RPE (total and ingestion, FIGS. 8-15)
O=c1cc(-c2ccc(O)cc2)oc2c([C@@H]3OC[C@H](O)[C@H](O)[C@H]3O)c(O)c([C@@H]3OC[C@@H](O)[C@H](O)[C@H]3O)c(O)c12 [DCMPbL6,7D2H2H3H2, apigenin 6-C-β-D-Xylopyranosyl-8-C-α-L-arabinopyranoside]	can accelerate the phagocytosis of RPE	could accelerate the phagocytosis of RPE
O=c1cc(-c2ccc(O)cc2)oc2c([C@@H]3OC[C@H](O)[C@H](O)[C@H]3O)c(O)c([C@@H]3OC[C@H](O)[C@H](O)[C@H]3O)c(O)c12 [DCMPbL6,7D2H2H3H3, apigenin 6,8-Di-C-α-L-arabinopyranoside]	can accelerate the phagocytosis of RPE	could accelerate the phagocytosis of RPE
O=c1cc(-c2ccc(O)cc2)oc2c([C@@H]3OC[C@@H](O)[C@@H](O)[C@@H]3O)c(O)c([C@@H]3OC[C@H](O)[C@H](O)[C@H]3O)c(O)c12 [DCMPbL6,7D2H2H3H4, apigenin 6-C-α-L-Arabinopyranosyl-8-C-β-D-arabinopyranoside]	can accelerate the phagocytosis of RPE	could accelerate the phagocytosis of RPE
